# Biological target: T1, CHOK1 cells engineered to overexpress human CCR2 (Homo sapiens, UniProt P41597)
# T1 construct: expressed in transfected cells; host or cells: CHOK1 cells
# Test: Antibody dependent cellular cytotoxicity (ADCC) reporter assay (Example 199)
# Format: cell-based
# Conditions: with anti-cotinine antibody SEQ ID NO: 11/12; CHOK1-human CCR2 target cells, Jurkat FcγRIIIa NFAT-luciferase reporter cells; 12-18 hours; read-out: ADCC Reporter Assay pEC50 (converted)
# Protocol: An antibody dependent cellular cytoxicity reporter assay was conducted using the following four assay components: (i) ARM compound of Formula (I) targeting CCR2 (concentrations ranging from 1 pM to 10 μM) (ii) anti-cotinine antibody having a heavy chain sequence of SEQ ID NO: 11 and a light chain sequence of SEQ ID NO: 12 (rabbit variable region with human IgG1 Fc domain containing a DE mutation (S239D/1332E)) (concentrations ranging from 0.01 μg/mL to 200 μg/mL); (iii) target cells: CHOK1 cells engineered to overexpress either human CCR2 (typically 1000-20,000 cells per well) and (iv) reporter cells: Jurkat cells engineered to express FcγRIIIa with the reporter gene luciferase under the control of the NFAT promoter (typically 3000-75,000 cells per well). Reagents were combined in a final volume of 20 μL in a 384-well tissue culture treated plate. All four assay components were incubated together for about 12-18 hours. Thereafter, BioGlo Detection reagent (Promega) was added to the wells to lyse the cells and provide a substrate for the luciferase reporter protein. Luminescence signal was measured on a microplate reader and signal:background was calculated by dividing the signal of a test well by the signal obtained when no heterobivalent compound of Formula (I) was added. EC50 calculations were done using Graphpad Prism Software, specifically a nonlinear regression curve fit (Y=Bottom+(Top−Bottom)/(1+10^((Log EC50−X)*HillSlope))).
# ARMs compounds of Formula (I) of the invention were tested for ADCC activity in the above assay in or more experimental runs and the results are shown in Table 3 below. Potency of the compounds of Formula (I) of the invention is reported as a pEC50 value. The pEC50 value is the negative log of the EC50 value, wherein the EC50 value is the half maximal effective concentration measured in molar (M). For compounds tested in more than one experimental run, the pEC50 value is reported as an average.
row,Structure (SMILES),EC50 [nM]
1,"CC(C)N(C)[C@@H]1CC[C@H](N2CC[C@H](Nc3ncnc4ccc(C(F)(F)F)cc34)C2=O)[C@H](NC(=O)C2CCC(N3CCC(S(=O)(=O)NCCCCCCNC(=O)[C@H]4CC(=O)N(C)[C@@H]4c4cccnc4)CC3)CC2)C1 (single isomer, unassigned) [Example 148]",3.16
2,CC(C)N(C)[C@@H]1CC[C@H](N2CC[C@H](Nc3ncnc4ccc(C(F)(F)F)cc34)C2=O)[C@H](NC(=O)CCCNC(=O)CCCC(=O)NCCCOCCCNC(=O)[C@@H]2CC(=O)N(C)[C@H]2c2cccnc2)C1 [Example 21],0.469
3,CC(C)N(C)[C@@H]1CC[C@H](N2CC[C@H](Nc3ncnc4ccc(C(F)(F)F)cc34)C2=O)[C@H](NC(=O)C23CCC(NC(=O)CCOCCOCCOCCNC(=O)[C@H]4CC(=O)N(C)[C@@H]4c4cccnc4)(CC2)CC3)C1 [Example 25],20
4,CC(C)N(C)[C@@H]1CC[C@H](N2CC[C@H](Nc3ncnc4ccc(C(F)(F)F)cc34)C2=O)[C@H](NC(=O)C[C@H]2CC[C@H](NC(=O)CCOCCOCCOCCNC(=O)[C@H]3CC(=O)N(C)[C@@H]3c3cccnc3)CC2)C1 [Example 33],4.54
5,"CN1C(=O)C[C@H](C(=O)NCCOCCOCCOCCOCCOCCOCCOCCOCCC(=O)N[C@@H]2C[C@H](NC(C)(C)C)CC[C@@H]2N2CC[C@H](Nc3ncnc4ccc(C(F)(F)F)cc34)C2=O)[C@H]1c1cccnc1 [Example 36, (2S,3S)-N-(27-(((1R,2S,5R)-5-(tert-Butylamino)-2-((S)-2-oxo-3-((6-(trifluoromethyl)quinazolin-4-yl)amino)pyrrolidin-1-yl)cyclohexyl)amino)-27-oxo-3,6,9,12,15,18,21,24-octaoxaheptacosyl)-1-methyl-5-oxo-2-(pyridin-3-yl)pyrrolidine-3-carboxamide]",3.98
6,CC(C)N(C)[C@@H]1CC[C@H](N2CC[C@H](Nc3ncnc4ccc(C(F)(F)F)cc34)C2=O)[C@H](NC(=O)[C@H]2C[C@H](NC(=O)CCOCCNC(=O)CCOCCNC(=O)[C@@H]3CC(=O)N(C)[C@H]3c3cccnc3)C2)C1 [Example 45],3.98
7,CN1C(=O)C[C@H](C(=O)NCCC(=O)NCCOCCOCCC(=O)N[C@H]2CC[C@@H](C(=O)N[C@@H]3C[C@H](NC(C)(C)C)CC[C@@H]3N3CC[C@H](Nc4ncnc5ccc(C(F)(F)F)cc45)C3=O)CC2)[C@H]1c1cccnc1 [Example 51],2
8,CC(C)N(C)[C@@H]1CC[C@H](N2CC[C@H](Nc3ncnc4ccc(C(F)(F)F)cc34)C2=O)[C@H](NC(=O)CCCOC[C@H]2CC[C@H](COCCNC(=O)[C@H]3CC(=O)N(C)[C@@H]3c3cccnc3)CC2)C1 [Example 58],50.1
9,CC(C)N(C)[C@@H]1CC[C@H](N2CC[C@H](Nc3ncnc4ccc(C(F)(F)F)cc34)C2=O)[C@H](NC(=O)CCCOCC23CCC(COCCNC(=O)[C@H]4CC(=O)N(C)[C@@H]4c4cccnc4)(CC2)CC3)C1 [Example 59],251
10,CC(C)N(C)[C@@H]1CC[C@H](N2CC[C@H](Nc3ncnc4ccc(C(F)(F)F)cc34)C2=O)[C@H](NC2CCC(C(=O)NCCOCCOCCNC(=O)[C@H]3CC(=O)N(C)[C@@H]3c3cccnc3)CC2)C1 (some centres unmarked) [Example 68],10
11,CC(C)N(C)[C@@H]1CC[C@H](N2CC[C@H](Nc3ncnc4ccc(C(F)(F)F)cc34)C2=O)[C@H](NC(=O)COCCNC(=O)CNC(=O)COCCOCCNC(=O)[C@H]2CC(=O)N(C)[C@@H]2c2cccnc2)C1 [Example 78],5.52
12,CC(C)N(C)[C@@H]1CC[C@H](N2CC[C@H](Nc3ncnc4ccc(C(F)(F)F)cc34)C2=O)[C@H](NC(=O)[C@H]2CC[C@@H](NC(=O)CNC(=O)COCCOCCNC(=O)[C@H]3CC(=O)N(C)[C@@H]3c3cccnc3)CC2)C1 [Example 81],0.522
13,CC(C)N(C)[C@@H]1CC[C@H](N2CC[C@H](Nc3ncnc4ccc(C(F)(F)F)cc34)C2=O)[C@H](NC(=O)[C@H]2CC[C@@H](NC(=O)COCCOCCNC(=O)CCNC(=O)[C@H]3CC(=O)N(C)[C@@H]3c3cccnc3)CC2)C1 [Example 82],0.479
14,CC(C)N(C)[C@@H]1CC[C@H](N2CC[C@H](Nc3ncnc4ccc(C(F)(F)F)cc34)C2=O)[C@H](NC(=O)COCC(=O)N2CCN(C(=O)N3CCN(C(=O)COCCNC(=O)[C@H]4CC(=O)N(C)[C@@H]4c4cccnc4)CC3)CC2)C1 [Example 84],0.213
15,"CC(C)N(C)[C@@H]1CC[C@H](N2CC[C@H](Nc3ncnc4ccc(C(F)(F)F)cc34)C2=O)[C@H](NC(=O)CCc2ccc(C3CCN(C(=O)CCCCCNC(=O)[C@H]4CC(=O)N(C)[C@@H]4c4cccnc4)CC3)cc2)C1 [Example 86, (2S,3S)-N-(6-(4-(4-(3-(((1R,2S,5R)-5-(Isopropyl(methyl)amino)-2-((S)-2-oxo-3-((6-(trifluoromethyl)quinazolin-4-yl)amino)pyrrolidin-1-yl)cyclohexyl)amino)-3-oxopropyl)phenyl)piperidin-1-yl)-6-oxohexyl)-1-methyl-5-oxo-2-(pyridin-3-yl)pyrrolidine-3-carboxamide]",7.94
16,CC(C)N(C)[C@@H]1CC[C@H](N2CC[C@H](Nc3ncnc4ccc(C(F)(F)F)cc34)C2=O)[C@H](NC(=O)C2CCN(C3CCN(C(=O)CCCCCNC(=O)[C@H]4CC(=O)N(C)[C@@H]4c4cccnc4)CC3)CC2)C1 [Example 87],3.98
17,"CC(C)N(C)[C@@H]1CC[C@H](N2CC[C@H](Nc3ncnc4ccc(C(F)(F)F)cc34)C2=O)[C@H](NC(=O)c2cc(OCCOCCOCCOCCOCCNC(=O)[C@H]3CC(=O)N(C)[C@@H]3c3cccnc3)ccn2)C1 [Example 88, N-((1R,2S,5R)-5-(Isopropyl(methyl)amino)-2-((S)-2-oxo-3-((6-(trifluoromethyl)quinazolin-4-yl)amino)pyrrolidin-1-yl)cyclohexyl)-4-((1-((2S,3S)-1-methyl-5-oxo-2-(pyridin-3-yl)pyrrolidin-3-yl)-1-oxo-5,8,11,14-tetraoxa-2-azahexadecan-16-yl)oxy)picolinamide]",2.51
18,CC(C)N(C)[C@@H]1CC[C@H](N2CC[C@H](Nc3ncnc4ccc(C(F)(F)F)cc34)C2=O)[C@H](NC(=O)c2cc(OCCOCCOCCOCCNC(=O)[C@H]3CC(=O)N(C)[C@@H]3c3cccnc3)ccn2)C1 [Example 89],6.31
19,"CC(C)N(C)[C@@H]1CC[C@H](N2CC[C@H](Nc3ncnc4ccc(C(F)(F)F)cc34)C2=O)[C@H](NC(=O)C2CCN(C3CCN(CCOCCOCCNC(=O)[C@H]4CC(=O)N(C)[C@@H]4c4cccnc4)CC3)CC2)C1 [Example 90, N-((1R,2S,5R)-5-(Isopropyl(methyl)amino)-2-((S)-2-oxo-3-((6-(trifluoromethyl)quinazolin-4-yl)amino)pyrrolidin-1-yl)cyclohexyl)-1′-(2-(2-(2-((2S,3S)-1-methyl-5-oxo-2-(pyridin-3-yl)pyrrolidine-3-carboxamido)ethoxy)ethoxy)ethyl)-[1,4′-bipiperidine]-4-carboxamide]",2
20,CC(C)N(C)[C@@H]1CC[C@H](N2CC[C@H](Nc3ncnc4ccc(C(F)(F)F)cc34)C2=O)[C@H](NC(=O)c2ccc(OC3CCN(CCOCCOCCNC(=O)[C@H]4CC(=O)N(C)[C@@H]4c4cccnc4)CC3)cc2)C1 [Example 91],2
